By AUC(0-t) is commonly meant exposure summed from dosing to a finite time, without extrapolation to infinity. A low value points to low exposure. Broadly, the clearance is a measure of how efficiently the substance is removed, as volume per time. As usually defined, the half-life is how long it takes for the measured level to halve. Lower therefore signals fast loss.

The source of these data is patent US9079876B2, “Imidazole derivatives and preparation method and use thereof” (Beijing Orbiepharm Co., Ltd., priority 2010, dated 2015).

Structures are written as SMILES.

Series [1] deals with T1, cyclooxygenase-1 (COX-1 enzyme) (Homo sapiens, UniProt P23219).
T1 construct: from tissue; host or cells: human whole blood without heparin (platelets) from healthy volunteers
T1 sequence (P23219 24-599): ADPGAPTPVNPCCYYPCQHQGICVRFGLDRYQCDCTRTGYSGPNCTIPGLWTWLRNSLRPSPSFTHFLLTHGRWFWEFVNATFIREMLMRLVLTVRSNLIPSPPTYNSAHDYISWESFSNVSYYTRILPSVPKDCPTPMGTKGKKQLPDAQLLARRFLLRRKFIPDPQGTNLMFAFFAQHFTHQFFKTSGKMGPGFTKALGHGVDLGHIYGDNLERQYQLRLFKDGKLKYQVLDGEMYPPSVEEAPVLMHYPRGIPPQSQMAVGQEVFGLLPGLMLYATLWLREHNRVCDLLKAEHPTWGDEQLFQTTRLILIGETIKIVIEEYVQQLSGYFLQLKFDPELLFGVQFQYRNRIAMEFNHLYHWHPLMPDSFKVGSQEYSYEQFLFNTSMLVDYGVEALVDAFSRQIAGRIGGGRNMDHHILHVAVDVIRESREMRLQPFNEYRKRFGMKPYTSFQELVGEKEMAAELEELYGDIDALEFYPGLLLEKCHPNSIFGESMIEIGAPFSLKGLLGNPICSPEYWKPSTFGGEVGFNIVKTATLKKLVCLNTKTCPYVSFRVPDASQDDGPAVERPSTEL
Kind of series: Human whole blood in vitro activity assay, COX-1 (TXB2 by EIA). It is filed as cell-based. The following applies: read-out: IC50 (μg/mL) COX-1 (converted). The protocol:
(§1) Human whole blood in vitro activity study: inhibition of activity of cyclooxygenase-1 (COX-1 enzyme) and cyclooxygenase-2 (COX-2 enzyme) in human blood. […] The blood samples were divided into two parts: one was used for detecting COX-1 enzyme activity, and the other was used for detecting COX-2 enzyme activity. The compounds were dissolved in DMSO, and were prepared in advance into 2 μL solutions in respective concentrations of 500, 50, 5, 0.5, 0.05, 0.005, 0.0005 μg/mL. 200 μL whole blood without heparin was added in the tubes containing the compounds, and then incubated at 37° C. for 1 hour. The activity of COX-1 enzyme was detected by determining the amount of thromboxane B2 (TXB2) synthesized by platelet using an EIA kit. Samples tested without the compounds were negative controls. For COX-2, 200 μL whole blood with heparin was added in the tubes containing the compounds and in the tubes containing 10 μg/mL LPS. LPS control and blank control with solvent only were used respectively for determining the maximum value and the background value of the PGE2 produced therefrom. The samples were incubated at 37° C. for 24 hours, and then centrifuged to collect serum/plasma, which was stored at −80° C. for detection by an EIA kit. The EIA kit of Cayman Company was used, the amounts of TXB2 and PGE2 were determined in accordance to the manufacturer's instructions, and the activities of COX-1 and COX-2 were tested respectively.

Series [2] addresses T2, cyclooxygenase-2 (COX-2 enzyme) (Homo sapiens, UniProt P35354).
T2 construct: from tissue; host or cells: heparinised human whole blood from healthy volunteers, stimulated with LPS
T2 sequence (P35354 18-604): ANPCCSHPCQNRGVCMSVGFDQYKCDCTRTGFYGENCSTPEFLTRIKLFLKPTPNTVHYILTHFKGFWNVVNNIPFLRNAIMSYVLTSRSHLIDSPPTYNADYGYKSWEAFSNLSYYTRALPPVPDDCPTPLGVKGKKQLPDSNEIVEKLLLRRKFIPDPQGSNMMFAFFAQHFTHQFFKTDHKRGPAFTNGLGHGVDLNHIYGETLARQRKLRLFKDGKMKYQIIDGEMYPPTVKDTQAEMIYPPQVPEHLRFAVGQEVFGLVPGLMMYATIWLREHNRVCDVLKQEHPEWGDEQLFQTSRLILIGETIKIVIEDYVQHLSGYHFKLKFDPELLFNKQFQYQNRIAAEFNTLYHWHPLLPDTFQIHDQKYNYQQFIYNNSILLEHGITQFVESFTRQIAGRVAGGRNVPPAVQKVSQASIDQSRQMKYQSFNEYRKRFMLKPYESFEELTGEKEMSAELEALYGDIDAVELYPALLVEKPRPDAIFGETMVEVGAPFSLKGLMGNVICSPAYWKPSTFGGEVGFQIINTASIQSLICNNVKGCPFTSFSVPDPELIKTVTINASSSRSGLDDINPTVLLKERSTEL
Kind of series: Human whole blood in vitro activity assay, COX-2 (LPS-induced PGE2 by EIA). Type of series: cell-based. The following applies: for IC50: LPS, PGE2, read-out: IC50 (μg/mL) COX-2 (converted). The method, then:
as §1

A further series concerns the target T3, COX-1 (Canis lupus familiaris, UniProt Q8HZR1).
T3 construct: in vitro activity study using beagle dog whole blood was conducted; from tissue; host or cells: beagle dog whole blood (platelets, by the same method as for human blood)
T3 sequence (Q8HZR1 28-603): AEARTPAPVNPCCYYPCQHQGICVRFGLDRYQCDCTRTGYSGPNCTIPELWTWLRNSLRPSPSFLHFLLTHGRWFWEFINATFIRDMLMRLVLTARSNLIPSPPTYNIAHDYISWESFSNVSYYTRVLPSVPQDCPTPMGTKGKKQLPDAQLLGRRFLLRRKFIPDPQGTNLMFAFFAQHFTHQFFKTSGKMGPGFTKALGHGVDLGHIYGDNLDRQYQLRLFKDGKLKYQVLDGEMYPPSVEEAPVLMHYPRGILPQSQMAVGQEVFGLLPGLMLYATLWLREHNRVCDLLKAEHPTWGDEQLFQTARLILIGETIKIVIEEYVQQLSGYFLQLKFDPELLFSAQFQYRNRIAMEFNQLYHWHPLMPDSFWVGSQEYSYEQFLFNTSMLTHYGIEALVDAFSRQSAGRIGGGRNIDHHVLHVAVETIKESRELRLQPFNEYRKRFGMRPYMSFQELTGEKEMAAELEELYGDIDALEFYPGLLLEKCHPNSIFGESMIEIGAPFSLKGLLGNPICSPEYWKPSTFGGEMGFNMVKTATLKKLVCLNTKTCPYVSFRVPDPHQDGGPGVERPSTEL
Kind of series: Dog whole blood in vitro activity assay, COX-1. It is filed as cell-based, beagle dog. The settings on record: read-out: IC50 (μg/mL) COX-1 (converted).

A further series concerns the target T4, COX-2 (Canis lupus familiaris, UniProt Q8SPQ9).
T4 construct: in vitro activity study using beagle dog whole blood was conducted; from tissue; host or cells: beagle dog whole blood, stimulated with LPS (by the same method as for human blood)
T4 sequence (Q8SPQ9 18-604): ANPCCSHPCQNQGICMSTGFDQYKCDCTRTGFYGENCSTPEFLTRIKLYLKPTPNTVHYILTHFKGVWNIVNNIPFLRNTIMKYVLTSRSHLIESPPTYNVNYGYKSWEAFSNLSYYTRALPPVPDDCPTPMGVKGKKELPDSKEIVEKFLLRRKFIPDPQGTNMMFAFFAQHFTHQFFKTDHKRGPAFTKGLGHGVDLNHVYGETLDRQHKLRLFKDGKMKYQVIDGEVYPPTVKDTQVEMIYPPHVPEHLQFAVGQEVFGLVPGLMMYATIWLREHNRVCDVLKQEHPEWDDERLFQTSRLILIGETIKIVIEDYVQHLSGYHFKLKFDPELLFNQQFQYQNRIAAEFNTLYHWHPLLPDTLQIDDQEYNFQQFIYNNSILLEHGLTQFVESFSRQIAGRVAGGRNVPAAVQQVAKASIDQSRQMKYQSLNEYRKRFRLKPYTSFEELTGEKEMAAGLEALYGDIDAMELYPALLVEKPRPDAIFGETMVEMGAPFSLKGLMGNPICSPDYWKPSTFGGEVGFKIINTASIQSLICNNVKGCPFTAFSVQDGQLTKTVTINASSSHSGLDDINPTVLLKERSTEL
Kind of series: Dog whole blood in vitro activity assay, COX-2. The following applies: for IC50: read-out: IC50 (μg/mL) COX-2 (converted). It is filed as cell-based, beagle dog.

The nature of series [3]: Pharmacokinetic study, intravenous, rats. The following applies: male SD rats, IV 2 mg/kg. It is filed as in vivo. The method, then: Cimicoxib (cimicoxib) was IV administrated to male SD rats in vivo [2 mg/kg, 2 mg/ml, menstruum: DMSO/PEG 400/30% HP-b-CD ([…])], T1/2 was 3.20 h. The half-life of compound 1 was longer than cimicoxib.

As for `COc1ccc(-c2c(Cl)ncn2-c2ccc(S(N)(=O)=O)cc2)cc1F` [Cimicoxib, reference compound], the IC50 in series [1] was 4.16 µM. Also, in series [2], the IC50COX-1/IC50COX-2 came to 8.8 and the IC50 is 0.471 µM. In addition, on COX-1, the IC50 was 15.6 µM. For the same compound, on COX-2, the IC50COX-1/IC50COX-2 is recorded as 9.5 and the IC50 was 1.65 µM. The t1/2 in series [3] amounted to 3.20 ± 0.80 h. In series [3] (rat, in vivo), this compound had an AUC(0-t) of 12000 ± 4400 ng·h/mL, a C0 of 1980 ± 140 ng/mL and a clearance of 2.99 ± 0.92 mL/min/kg. The half-life in series [3] (rat, in vivo, 2 mg/ml, DMSO/PEG 400/30% HP-b-CD) was 3.2 h. Further, the Vd in series [3] (rat, in vivo, read-out: Vss) was 0.773 ± 0.145 L/kg.
Regarding `COc1ccc(-c2c(Cl)ncn2-c2ccc(S(C)(=O)=O)cn2)cc1` [Compound 5, 2-(4-chloro-5-(4-methoxyphenyl)-1H-imidazol-1-yl)-5-(methylsulfonyl)pyridine], the IC50 in series [1] was 0.632 µM. For the same compound, in series [2], the IC50COX-1/IC50COX-2 amounted to 4.6 and the IC50 was 0.137 µM.
For `CS(=O)(=O)c1ccc(-n2cnc(Cl)c2-c2cccnc2)cn1` [Compound 11, 5-(4-chloro-5-(pyridin-3-yl)-1H-imidazol-1-yl)-2-(methylsulfonyl)pyridine] the same measures were > 1490 µM, >12.6 and 118 µM.
The corresponding values for `COc1ccc(-c2c(Cl)ncn2-c2ccc(S(C)(=O)=O)cn2)cc1F` [Compound 6, 2-(4-chloro-5-(3-fluoro-4-methoxyphenyl)-1H-imidazol-1-yl)-5-(methylsulfonyl)pyridine] are 8.8 µM, 25.8 and 0.34 µM.
Consider `CS(=O)(=O)c1ccc(-n2cnc(Cl)c2-c2ccc(F)cc2)nc1` [Compound 2, 2-(4-chloro-5-(4-fluorophenyl)-1H-imidazol-1-yl)-5-(methylsulfonyl)pyridine], for which the IC50 in series [1] was 11.2 µM; in series [2] it was 0.512 µM; on COX-1, 55.9 µM; at COX-2, 2.62 µM. Further, the IC50COX-1/IC50COX-2 in series [2] turned out to be 21.8; against COX-2, 21.4.
Turning to `COc1ccc(-c2c(Cl)ncn2-c2ccc(S(C)(=O)=O)nc2)cc1` [Compound 9, 5-(4-chloro-5-(4-methoxyphenyl)-1H-imidazol-1-yl)-2-(methylsulfonyl)pyridine], the IC50 in series [1] is 62.5 µM; in series [2] it was 0.253 µM; on COX-1 it was 553 µM; at COX-2, 2.31 µM. The figures for the IC50COX-1/IC50COX-2 (in series [2]; against COX-2) were 247.2 and 239.6, respectively.
In the case of `CS(=O)(=O)c1ccc(-n2cncc2-c2ccccc2)nc1` [Compound 1E, 5-(methylsulfonyl)-2-(5-phenyl-1H-imidazol-1-yl)pyridine], the IC50 in series [1] was 86.5 µM. In series [2], the IC50COX-1/IC50COX-2 was determined as 11.6 and the IC50 is 7.45 µM.
For `Cc1ccc(-c2c(Cl)ncn2-c2ccc(S(C)(=O)=O)cn2)cc1` [Compound 3, 2-(4-chloro-5-p-tolyl-1H-imidazol-1-yl)-5-(methylsulfonyl)pyridine], the IC50 in series [1] was 19.7 µM; in series [2], 0.259 µM; at COX-1 it was 30.2 µM; on COX-2, 1.61 µM. Also, the IC50COX-1/IC50COX-2 was determined as 76.2 in series [2] and 18.8 on COX-2.
`CS(=O)(=O)c1ccc(-n2cnc(Cl)c2-c2ccc(Cl)cc2Cl)nc1` [Compound 4, 2-(4-chloro-5-(2,4-dichlorophenyl)-1H-imidazol-1-yl)-5-(methylsulfonyl)pyridine]: the IC50 was 45.6 µM in series [1] and 1.74 µM in series [2]. This compound showed an IC50COX-1/IC50COX-2 in series [2] of 26.2.
For `CS(=O)(=O)c1ccc(-n2cnc(Cl)c2-c2ccccc2)cn1` [Compound 8, 5-(4-chloro-5-phenyl-1H-imidazol-1-yl)-2-(methylsulfonyl)pyridine] the same measures were > 1500 µM, 3.59 µM and >416.
